This is an account of results in patent US10259798B2, “High-purity magnesium lithospermate B and preparation method therefor” (priority 2014, dated 2019).

“Also recorded” adds a separate entry of the source. Read-outs that look alike come from different tables or passages of the source. Marks after values point to notes of the source that are not given here.

Data set [1] relates to bleeding of severed tails of rats. Nature of the data set: Bleeding time of severed tails of rats. The format is in vivo, SD rat. The conditions noted are these: for Bleeding time: injection through femoral vein, tail severed 2 mins after administration, cut-off 1800 seconds. The text has this: Sample and control: lithospermic acid B, dipotassium lithospermate B, depside salts of Salvia miltiorrhiza (comprising 85% magnesium lithospermate B), magnesium lithospermate B, formulated with normal saline prior to use; normal saline as solvent control was from Jiangsu Yabang Pharmaceutical Co., Ltd.; the other reagents were all commercially available analytically pure products. Experimental animal: species and strain: SD rat; source: Shanghai SLAC Laboratory Animal Co., Ltd., Laboratory Animal Production License: SCXK (Shanghai) 2012-0002; number and gender: 50, male; animal weight: 120-200 g. Dosage setting: the dosages of lithospermic acid type reagents were set as 50 and 100 mg/kg in the present experiment; normal saline was given as additional solvent control. Tail severing time was 2 mins after administration. Administration route and administration dosage of sample and control: administration by injection through femoral vein, 2 ml/kg. Experimental method: the animals were water fasted overnight. 50 mg/kg pentobarbital sodium was intraperitoneally injected for anesthesia prior to the experiment. After anesthesia of the animals, markers were made at 4 mm from tips of rat tails with a marker pen and ruler. Drugs were injected through femoral veins of the animals. 2 mins later, the tails were swiftly severed at marked positions of the animal tails with a scalpel. The remained animal tails were rapidly inserted into prepared normal saline tubes in 37° C. water bath, and timing was started. The bleeding of the animal tails was observed. If no more bleeding was observed within 30 seconds, the time was recorded as coagulation time (unit: second) of the animals. […] Observation indicator and observation time: the indicator was the bleeding time. Statistical method: the experimental data was represented with x±SD; GraphPad Prism 5 1 way ANOVA was applied for significance test.

The format of data set [2] is physicochemical. The conditions noted are these: for 0 h peak area / 2 h peak area / 4 h peak area / 6 h peak area / 8 h peak area / 12 h peak area / 24 h peak area: HPLC 288 nm; for 0 h peak area: 1 mg/mL aqueous solution at 25° C. diluted 10 times, MLB of Example 1; for 2 h peak area / 4 h peak area / 6 h peak area / 8 h peak area / 12 h peak area / 24 h peak area: aqueous solution; for Average peak area: average over 0-24 h. The method, then: The chemical stability of magnesium lithospermate B was investigated by detecting the variation of peak areas (HPLC). Specific experimental method: lithospermic acid B (lab-made; lot number: 20131017) and magnesium lithospermate B prepared in Example 1 of the present invention were respectively formulated to 1 mg/mL aqueous solution at 25° C., which was then diluted 10 times. The variation of peak areas of lithospermic acid B at 288 nm for durations of 0, 2, 4, 6, 8, 12, and 24 hours were detected by HPLC, respectively. 10 microliters was injected for each time.

The subject of data set [3] is cardiac myoblast cell H9C2. The format is cell-based. The source says: (§1) Sample and control: magnesium lithospermate B (prepared according to Example 6 of the present application), lithospermic acid B (lab made; lot number: 20131017), formulated with normal saline prior to use; normal saline as solvent control was derived from Jiangsu Yabang Pharmaceutical Co., Ltd.; the other reagents were all commercially available analytically pure products. Cell lines and reagents: cardiac myoblast (H9C2); Microvascular Endothelial Cell (HMEC-1); Lactic Dehydrogenase Cytotoxicity Detection Kit, Beyotime Biotechnology Institute. Dosage setting: the dosages of lithospermic acid B and magnesium lithospermate B were set at 10, 50, 100, 200, 400, 800, 1200, 1600 μM and the incubation time was set as 24 hours in the present experiment. Experimental method: H9C2 cells and HMEC-1 cells were respectively incubated in 10% FBS containing low saccharide DMEM medium and MCDB-131 medium, at 37° C. and 5% CO2. Cells were seeded in a 96-well culture plate, which was added with different concentrations of lithospermic acid B solutions and magnesium lithospermate B solutions on the next day (about 80% fusion). After incubation for 24 hours in total, the detection was conducted according to instructions of the Lactic Dehydrogenase Cytotoxicity Detection Kit. Observation indicator and observation time: the observation indicator is the level of lactic dehydrogenase in cells; cell survival rate was represented by intracellular LDH content ratio, i.e. (absorbance of treated sample well−absorbance of sample control well)/(absorbance of cells with maximum enzymatic activity−absorbance of sample control well)×100. Statistical method: the data was presented with average±standard derivation (mean±SD); the comparison of two groups of data was statistically analyzed by student-t test method, P<0.05 indicating statistical difference.

For another data set, the system named is endothelial cell HMEC-1. The data set is classed as cell-based.
Excerpt: as §1

Data set [4] has as its system lipid oxidation in rat liver microsome. Nature of the data set: In vitro anti-lipid peroxidation experiment (MDA, TBA method). The data set is classed as biochemical, SD rat. The conditions noted are these: 100 μM, 37° C. 90 mins. The text has this: Sample and control: magnesium lithospermate B (prepared according to Example 6 of the present application), lithospermic acid B (lab-made; lot number: 20131017), formulated with normal saline prior to use; normal saline as solvent control was from Jiangsu Yabang Pharmaceutical Co., Ltd.; the other reagents were all commercially available analytically pure products. Tris base, potassium chloride, dipotassium phosphate, glycerol, etc. (Sinopharm Chemical Reagent Co., Ltd.); Coomassie brilliant blue G-250, bovine serum albumin (Shanghai Lanji Technology Development Co., Ltd.).
Experimental animal: species and strain: SD rat; source: Shanghai SLAC Laboratory Animal Co., Ltd., Laboratory Animal Production License: SCXK (Shanghai) 2012-0002; number and gender: 2, male; animal weight: 200-250 g.
Steps for preparing liver microsome: liver tissue was taken out, cut into pieces, washed with Buffer A, wiped up, and weighed for 8 g. By adding 10 ml Buffer A per gram of tissue, 80 ml was added in total, followed by automatic homogenization and further homogenization with manual homogenizer. The homogenate was centrifuged at 10,000 g and 4° C. for 30 mins, and the supernatant was taken out. The supernatant was centrifuged at 105,000 g and 4° C. for 60 mins. The resulting precipitate is the microsome, which was then added with Buffer B to obtain microsome suspension, aliquoted into 2 ml small tubes, and stored in −70° C. refrigerator for further use. Determination of protein content: using Bradford method (Coomassie brilliant blue G-250 method).
Determination of lipid oxidation in rat liver microsome: 1 ml liver microsome was added into each tube, followed by addition of different concentrations of reagent solutions. The mixtures were well shaken and incubated in 37° C. water bath for 90 mins. After the tubes were taken out, 1 ml 10% trichloroacetic acid (TCA) and 1 ml 0.67% thiobarbituric acid (TBA) were added into each tube. The tubes were placed in boiling water bath for 15 mins, then cooled with running water and centrifuged at 3000 rpm for 10 mins. The supernatants were taken for colorimetric determination at 532 nm. The contents were calculated with standard tetraethoxypropane and represented with content per mg protein.
Calculation formula: MDA content (nmol/mg prot)={[(Asample−Ablank)÷(Astandard−Ablank)]×10 nmol/ml}÷protein content Inhibition rate %=(MDAblank−MDAsample)/MDAblank×100%

As for `O=C(C=Cc1ccc(O)c2c1C(C(=O)OC(Cc1ccc(O)c(O)c1)C(=O)[O-])C(c1ccc(O)c(O)c1)O2)OC(Cc1ccc(O)c(O)c1)C(=O)[O-].[K+].[K+]` (stereo not shown) [Dipotassium lithospermate B, dipotassium lithospermate B, reference compound], the Bleeding time in data set [1] (50 mg/kg) is on record as 827 ± 70**^$$ second; in data set [1] (100 mg/kg) it was 1301 ± 189**^$$ second.
As for `O=C(/C=C/c1ccc(O)c2c1[C@H](C(=O)O[C@H](Cc1ccc(O)c(O)c1)C(=O)O)[C@@H](c1ccc(O)c(O)c1)O2)O[C@H](Cc1ccc(O)c(O)c1)C(=O)O` [Lithospermic acid B, lithospermic acid B, reference compound], in data set [2], the “0 h peak area” value is given as 3957, the “2 h peak area” value is listed as 3991, the “4 h peak area” value was determined as 3992 and the “6 h peak area” value was 3983. In data set [2], the “8 h peak area” value is on record as 4002, the “12 h peak area” value stood at 3990, the “24 h peak area” value is 4000 and the Average peak area was found to be 3987.8. In data set [1] (50 mg/kg), this compound had a Bleeding time of 869 ± 71 s. In data set [1] (100 mg/kg), this compound displayed a Bleeding time of 1078 ± 137 s. Also, the “Toxic effect at high dosages, in words” value in data set [3] is on record as “toxic effect”. The “Toxic effect at high dosages, in words” value with endothelial cell HMEC-1 is “toxic effect”. The “Inhibition rate (anti-lipid peroxidation, MDA)” value (shortened to “Inhibition rate”) in data set [4] (n = 3) came out at 86.42%. In data set [4] (n = 3, listed as lithospermic acid B), the “Inhibition rate” value is “around 85%”.
As to `O=C(/C=C/c1ccc(O)c2c1[C@H](C(=O)OC(Cc1ccc(O)c(O)c1)C(=O)[O-])C(c1ccc(O)c(O)c1)O2)O[C@H](Cc1ccc(O)c(O)c1)C(=O)[O-].[Mg+2]` (stereo partly shown) [Magnesium lithospermate B, magnesium lithospermate B], in data set [2], the “0 h peak area” value amounted to 3611. Moreover, in data set [2], the “2 h peak area” value worked out at 3632. Besides, in data set [2], the “4 h peak area” value was found to be 3614. In addition, in data set [2], the “6 h peak area” value was 3636. Besides, the “8 h peak area” value in data set [2] was found to be 3629. In addition, the “12 h peak area” value in data set [2] stood at 3628. For the same compound, in data set [2], the “24 h peak area” value is reported as 3599. In data set [2], this compound displayed an Average peak area of 3621.3. Besides, the Bleeding time was 1098 ± 84 s in data set [1] (50 mg/kg) and 1800 ± 0 s in data set [1] (100 mg/kg). Moreover, the “Bleeding time / activity compared with the other test substances, in words” value in data set [1] (same dosage, intravenous injection) was “remarkably longer than lithospermic acid B administration group; also recorded: significantly longer than dipotassium lithospermate B and depside salts of Salvia miltiorrhiza; also recorded: activity superior to the free acid (lithospermic acid B), other salts (dipotassium lithospermate B), and low purity mixtures (salvianolates of Salvia miltiorrhiza); also recorded: better activities than free acid (lithospermic acid B), other salt (dipotassium lithospermate B), and low purity mixture (depside salts of Salvia miltiorrhiza)”. For the same compound, the “Toxic effect at high dosages, in words” value (in data set [3]; with endothelial cell HMEC-1) was “toxic effect” each time. In addition, the “Concentrations that significantly decreased the intracellular LDH content as compared with normal control wells” value in data set [3] (rat, 24 h) is 800, 1200, 1600 μM; in the data set with endothelial cell HMEC-1 (human, 24 h), 1200 and 1600 μM. The “Intracellular LDH content percent, H9C2 cell” value in data set [3] (rat, 24 h, 10 μM) amounted to 101.42 ± 2.00%; in data set [3] (rat, 24 h, 50 μM), 99.97 ± 1.43%; in data set [3] (rat, 24 h, 100 μM), 101.25 ± 2.79%; in data set [3] (rat, 24 h, 200 μM), 102.39 ± 1.37%; in data set [3] (rat, 24 h, 400 μM), 102.75 ± 3.07%; in data set [3] (rat, 24 h, 800 μM), 37.72 ± 7.52 %. Besides, the “Intracellular LDH content percent, H9C2 cell” value in data set [3] (rat, 24 h, 1200 μM) is listed as 21.59 ± 2.86 %; in data set [3] (rat, 24 h, 1600 μM) it was 14.59 ± 3.05 %. The “Intracellular LDH content percent, HMEC-1 cell” value is reported as 99.70 ± 3.88% in the data set with endothelial cell HMEC-1 (human, 24 h, 10 μM); 101.05 ± 4.77% in the data set with endothelial cell HMEC-1 (human, 24 h, 50 μM); 100.96 ± 4.01% in the data set with endothelial cell HMEC-1 (human, 24 h, 100 μM); 98.58 ± 0.24% with endothelial cell HMEC-1 (human, 24 h, 200 μM); 97.8 ± 1.03% in the data set with endothelial cell HMEC-1 (human, 24 h, 400 μM); 96.93 ± 1.37% with endothelial cell HMEC-1 (human, 24 h, 800 μM). Further, the “Intracellular LDH content percent, HMEC-1 cell” value is 96.17 ± 1.00 % with endothelial cell HMEC-1 (human, 24 h, 1200 μM) and 84.28 ± 3.28 % in the data set on endothelial cell HMEC-1 (human, 24 h, 1600 μM). Besides, the “Inhibition rate” value in data set [4] (n = 3) is on record as 84.41%; in data set [4] (n = 3, listed as magnesium lithospermate B), “around 85%”.
